What all share (assay type): cell-based
A short description of assay [1]: Antimicrobial and antifungal characteristics (MIC) of propylene carbonate alone. From the text: In one embodiment of the application, the synergistic composition of propylene carbonate with one or more organic compounds or preservative compounds can provide broad spectrum antimicrobial properties. […] The presence of propylene carbonate in the composition can maximize the partitioning of the mixture of organic/preservative compounds into the water phase when added to an end-user composition comprising a mixture of oil and a water phase. Further, the propylene carbonate-based compositions or blends acts as a delivery agent for other preservative/organic actives that have low polarity with high dielectric constant making it a suitable blend to dissolve hydrophobic non-polar actives. The high dielectric constant of the composition enables it to partition the active ingredients towards the oil/water interface which is critical for maximum efficacy and reduces use levels of preservatives or boosters.

Assay [2] deals with A. niger. The assay can be described thus: Synergy study of PC and (CHA + IPMP), MIC by broth dilution. The conditions noted are these: compound acting alone. Here is the method: (§1) The synergistic activity of PC and (CHA+IPMP) compounds were performed against selected microbial strains.
(§2) Tryptic Soy Broth (TSB) media was used for bacterial evaluations and Yeast Malt Broth (YMB) for fungal evaluations. The IPMP solution is prepared by combining 0.25% IPMP with 20% DMSO and water (q.s. 100%). The CHA solution was prepared by combining 0.5% CHA with 20% DMSO and water (q.s. 100%). The compounds are then added to the media (50 μL) and serially diluted. The same amount of PC was added to all wells (e.g. 50 μL of 6.25% solution). 100 μl of a suspension of the testing bacteria or fungi are added to a final concentration of approximately 10^6 CFU/ml in double concentrated media. The inoculated media is then incubated at 32° C. for 2-5 days for bacteria or at 28° C. for 3-7 days for fungi.
(§3) The lowest concentration of each compound or mixture of compounds to inhibit visible growth is taken as the minimum inhibitory concentration (MIC). The MIC is taken as end points of activity. End points for the mixture of compound A (CHA) and compound B (IPMP) with and without PC are then compared with the end points for the pure active ingredient alone.
(§4) Synergism was determined by a commonly used and accepted method described by Kull A. C; Eisman, P. C.; Sylwestrowicz, H. D. and Mayer, R. L. 1961. Applied Microbiology, 9:538-541 using the ratio determine by: Qa/QA+Qb/QB=Synergy Wherein: • QA is the concentration of compound A in PPM, acting alone, which produced an end point. • Qa is the concentration of compound A in PPM, in the mixture, which produced an end point. • QB is the concentration of compound B in PPM, acting alone, which produced an end point. • Qb is the concentration of compound B in PPM, in the mixture, which produced an end point When the sum of Qa/QA+Qb/QB is greater than one, antagonism is indicated. When the sum is equal to one, additive is indicated.
(§5) The results comprise following parameters: 1. Test organism (bacteria or fungi), 2. The end-point activity in % measured by MIC for the compound A alone (QA), for compound A in the mixture (Qa), for compound B alone (QB), for compound B in the mixture (Qb), 3. The ratio of CHA and IPMP (compound A and B) in that particular combination, 4. The sum of Qa+Qb (total ppm that inhibited growth) and 5. and the synergy index (SI) based on the formula SI=Qa/QA+Qb/QB
A general note: Broth dilution looks for growth in wells or tubes with falling amounts of substance.

Assay [3] relates to C. albicans. The description is as above. The conditions noted are these: compound acting alone. The method, then: as §1, §2, §3, §4, §5
Assay [4] concerns E. coli. The assay is described as above. The conditions noted are these: compound acting alone. Here is the method:
as §1, §2, §3, §4, §5

For assay [5], the system named is B. cepacia. The assay is described as above. Particulars: compound acting alone. Here is the method:
as §1, §2, §3, §4, §5

For `CC1COC(=O)O1` (stereo not drawn) [Propylene carbonate], the “Antimicrobial and antifungal characteristics (MIC)” value in assay [1] is “no significant antimicrobial and antifungal characteristics”.
Consider `Cc1cc(O)ccc1C(C)C` [IPMP, isopropyl methylphenol], for which the “MIC, IPMP alone (QB)” value in assay [2] is reported as 156.3 ppm; in assay [3] it was 312.5 ppm; in assay [4], 625 ppm; in assay [5], 312.5 ppm.
For `CCCCCCCC(=O)NO` [CHA, caprylhydroxamic acid], the MIC in assay [2] (Aspergillus niger, read-out: MIC, CHA alone (QA)) worked out at 312 µg/mL; in assay [3] (Candida albicans, read-out: MIC, CHA alone (QA)), 312 µg/mL; in assay [4] (Escherichia coli, read-out: MIC, CHA alone (QA)), 625 µg/mL; in assay [5] (Burkholderia cepacia, read-out: MIC, CHA alone (QA)), 312 µg/mL.

The term MIC denotes the least concentration at which growth counts as inhibited.

The values are drawn from patent publication US12082582B2, “Synergistic preservative compositions, process for preparing the same and method of use thereof” (ISP INVESTMENTS LLC, priority 2018, dated 2024).
